Assay results taken from ChEMBL document CHEMBL6103546, “TRPM8 and TRPA1 ideal targets for treating cold-induced pain” (Eur J Med Chem, 2025).

What was measured:
[1] = biological target: T1, Transient receptor potential cation channel subfamily M member 8 (Homo sapiens, UniProt Q7Z2W7); assay: Antagonist activity at human TRPM8 transfected in HEK293T cells assessed as inhibition of intracellular Ca2+ level by Fluo-4 dye based fluorescence assay; format: cell-based
[2] = biological target: Transient receptor potential cation channel subfamily M member 8 (Rattus norvegicus, UniProt Q8R455); assay: Antagonist activity at rat TRPM8 transfected in HEK293T cells assessed as reduction in intracellular Ca2+ level Fluo-4 dye based fluorescence assay; format: cell-based
Chain of Transient receptor potential cation channel subfamily M member 8 (Rattus norvegicus, UniProt Q8R455) (Q8R455 whole entry): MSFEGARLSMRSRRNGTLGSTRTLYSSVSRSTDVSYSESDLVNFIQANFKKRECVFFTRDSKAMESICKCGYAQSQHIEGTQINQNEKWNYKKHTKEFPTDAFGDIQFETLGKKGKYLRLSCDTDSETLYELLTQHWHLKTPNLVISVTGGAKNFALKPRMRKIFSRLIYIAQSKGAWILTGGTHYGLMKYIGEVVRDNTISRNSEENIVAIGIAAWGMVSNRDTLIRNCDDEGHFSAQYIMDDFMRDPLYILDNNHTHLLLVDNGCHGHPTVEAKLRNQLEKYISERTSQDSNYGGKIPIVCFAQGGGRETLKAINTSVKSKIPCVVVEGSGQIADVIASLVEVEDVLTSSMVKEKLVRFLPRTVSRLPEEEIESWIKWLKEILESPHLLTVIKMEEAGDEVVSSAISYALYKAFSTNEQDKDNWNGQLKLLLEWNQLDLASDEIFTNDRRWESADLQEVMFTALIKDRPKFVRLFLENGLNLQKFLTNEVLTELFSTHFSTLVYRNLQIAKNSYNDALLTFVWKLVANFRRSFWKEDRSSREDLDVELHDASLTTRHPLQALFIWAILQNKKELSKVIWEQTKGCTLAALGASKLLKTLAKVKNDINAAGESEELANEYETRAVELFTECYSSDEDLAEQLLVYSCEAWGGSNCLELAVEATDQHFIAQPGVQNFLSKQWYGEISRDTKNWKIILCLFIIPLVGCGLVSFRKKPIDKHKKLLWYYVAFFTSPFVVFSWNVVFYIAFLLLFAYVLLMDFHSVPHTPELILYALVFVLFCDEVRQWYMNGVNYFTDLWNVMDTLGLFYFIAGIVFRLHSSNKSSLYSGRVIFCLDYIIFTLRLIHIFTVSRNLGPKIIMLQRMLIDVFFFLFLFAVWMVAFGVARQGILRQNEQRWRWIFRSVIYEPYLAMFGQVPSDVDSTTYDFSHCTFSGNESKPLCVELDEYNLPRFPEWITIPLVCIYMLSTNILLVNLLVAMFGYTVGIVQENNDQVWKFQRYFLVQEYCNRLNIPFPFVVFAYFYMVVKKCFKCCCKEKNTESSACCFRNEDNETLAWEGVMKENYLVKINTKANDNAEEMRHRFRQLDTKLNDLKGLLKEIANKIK

[3] = biological target: T2, Transient receptor potential cation channel subfamily A member 1 (Homo sapiens, UniProt O75762); assay: Antagonist activity at TRPA1 (unknown origin) transfected in HEK293F cells assessed as reduction in intracellular Ca2+ by fluorescence based assay; format: cell-based
T2 sequence (O75762 whole entry): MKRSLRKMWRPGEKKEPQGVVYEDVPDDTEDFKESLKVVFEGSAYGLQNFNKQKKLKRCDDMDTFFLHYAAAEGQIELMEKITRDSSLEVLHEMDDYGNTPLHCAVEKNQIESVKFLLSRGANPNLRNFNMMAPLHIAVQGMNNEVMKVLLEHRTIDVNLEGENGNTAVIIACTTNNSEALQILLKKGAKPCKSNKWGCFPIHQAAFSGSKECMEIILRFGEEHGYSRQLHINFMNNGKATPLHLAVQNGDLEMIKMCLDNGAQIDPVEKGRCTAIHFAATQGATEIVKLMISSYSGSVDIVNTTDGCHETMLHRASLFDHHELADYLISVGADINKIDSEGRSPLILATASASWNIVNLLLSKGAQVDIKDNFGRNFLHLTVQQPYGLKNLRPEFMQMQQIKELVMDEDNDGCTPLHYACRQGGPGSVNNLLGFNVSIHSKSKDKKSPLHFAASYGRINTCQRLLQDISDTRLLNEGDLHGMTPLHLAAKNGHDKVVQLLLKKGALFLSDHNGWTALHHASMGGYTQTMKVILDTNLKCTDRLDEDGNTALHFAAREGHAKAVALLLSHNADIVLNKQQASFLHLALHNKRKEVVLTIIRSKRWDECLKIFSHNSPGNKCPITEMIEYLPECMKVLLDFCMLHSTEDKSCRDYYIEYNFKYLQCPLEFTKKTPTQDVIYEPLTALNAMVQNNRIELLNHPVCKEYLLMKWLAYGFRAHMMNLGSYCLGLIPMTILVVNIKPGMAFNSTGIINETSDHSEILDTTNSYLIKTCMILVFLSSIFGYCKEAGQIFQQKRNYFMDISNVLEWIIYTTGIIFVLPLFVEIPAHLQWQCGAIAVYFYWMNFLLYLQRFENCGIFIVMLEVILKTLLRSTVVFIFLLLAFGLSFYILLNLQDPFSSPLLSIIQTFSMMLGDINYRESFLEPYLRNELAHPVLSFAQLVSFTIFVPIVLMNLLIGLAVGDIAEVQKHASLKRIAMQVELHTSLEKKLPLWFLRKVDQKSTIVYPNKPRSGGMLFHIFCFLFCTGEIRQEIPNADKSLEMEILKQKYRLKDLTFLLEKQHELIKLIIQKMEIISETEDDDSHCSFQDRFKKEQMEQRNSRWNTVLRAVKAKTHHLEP

[4] = biological target: T1, Transient receptor potential cation channel subfamily M member 8; assay: Antagonist activity at TRPM8 (unknown origin) in HEK293T cells; format: cell-based
[5] = biological target: T1, Transient receptor potential cation channel subfamily M member 8; assay: Antagonist activity at human recombinant TRPM8 stably transfected in HEK293 cells assessed as inhibition of intracellular Ca2+ flux incubated for 60 mins by Fluo-4 dye based fluorescence assay; format: cell-based
[6] = biological target: T1, Transient receptor potential cation channel subfamily M member 8; assay: Antagonist activity at human TRPM8 expressed in HEK293 cells; format: cell-based
[7] = biological target: T1, Transient receptor potential cation channel subfamily M member 8; assay: Antagonist activity at TRPM8 (unknown origin)
[8] = biological target: T2, Transient receptor potential cation channel subfamily A member 1; assay: Antagonist activity at TRPA1 (unknown origin) expressed in HEK293 cells assessed as inhibition of AITC-induced intracellular Ca2+ flux by fluorescence dye based assay; format: cell-based
[9] = biological target: T1, Transient receptor potential cation channel subfamily M member 8; assay: Agonist activity at TRPM8 (unknown origin)
[10] = biological target: T2, Transient receptor potential cation channel subfamily A member 1; assay: Antagonist activity at human TRPA1 expressed in CHO cells assessed as inhibition of AITC-induced intracellular Ca2+ flux by fluorescence dye based assay; format: cell-based
[11] = biological target: T2, Transient receptor potential cation channel subfamily A member 1; assay: […] at human TRPA1 expressed in HEK293T cells assessed as inhibition of AITC-induced current by whole cell patch clamp analysis; format: cell-based
[12] = biological target: T2, Transient receptor potential cation channel subfamily A member 1; assay: Antagonist activity at recombinant TRPA1 (unknown origin) expressed in T-REx-293 cells assessed as inhibition of AITC-induced intracellular Ca2+ flux by patch clamp assay; format: cell-based

T1 sequence (Q7Z2W7 whole entry): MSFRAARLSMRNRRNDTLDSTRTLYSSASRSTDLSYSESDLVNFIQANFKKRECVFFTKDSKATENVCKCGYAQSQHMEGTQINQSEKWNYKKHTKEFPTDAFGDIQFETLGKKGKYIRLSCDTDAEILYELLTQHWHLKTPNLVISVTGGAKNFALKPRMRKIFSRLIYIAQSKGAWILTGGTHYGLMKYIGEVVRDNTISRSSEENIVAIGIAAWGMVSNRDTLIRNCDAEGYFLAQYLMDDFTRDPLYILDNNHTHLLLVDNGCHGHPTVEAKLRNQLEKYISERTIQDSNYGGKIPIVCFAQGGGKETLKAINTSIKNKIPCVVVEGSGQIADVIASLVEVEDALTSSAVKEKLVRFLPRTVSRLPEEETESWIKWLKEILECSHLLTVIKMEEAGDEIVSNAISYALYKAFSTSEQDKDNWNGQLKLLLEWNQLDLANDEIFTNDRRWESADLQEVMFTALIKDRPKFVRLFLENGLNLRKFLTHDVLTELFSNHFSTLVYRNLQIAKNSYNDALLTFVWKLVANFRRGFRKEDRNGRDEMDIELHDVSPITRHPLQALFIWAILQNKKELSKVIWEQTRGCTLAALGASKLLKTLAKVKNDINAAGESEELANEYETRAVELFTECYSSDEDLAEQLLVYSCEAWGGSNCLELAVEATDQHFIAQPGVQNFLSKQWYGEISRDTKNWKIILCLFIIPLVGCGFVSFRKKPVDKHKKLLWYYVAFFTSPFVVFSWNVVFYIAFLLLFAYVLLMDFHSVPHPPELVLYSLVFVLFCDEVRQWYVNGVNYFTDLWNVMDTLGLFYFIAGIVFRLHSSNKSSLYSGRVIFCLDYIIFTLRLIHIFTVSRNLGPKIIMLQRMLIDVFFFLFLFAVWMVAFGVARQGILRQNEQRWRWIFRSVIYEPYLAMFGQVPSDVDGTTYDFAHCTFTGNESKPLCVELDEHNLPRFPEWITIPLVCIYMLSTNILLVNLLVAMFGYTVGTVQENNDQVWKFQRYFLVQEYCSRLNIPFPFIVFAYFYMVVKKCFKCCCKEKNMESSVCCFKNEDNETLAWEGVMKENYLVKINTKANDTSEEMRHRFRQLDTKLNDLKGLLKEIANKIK

O=C(N[C@H](Cn1nccn1)C(F)(F)CO)c1cccc(F)c1-c1cc(-c2ccc(F)cc2)[nH]n1
IC50 [1]: 25.3 nM | IC50 [2]: 22.4 nM

COc1ccc(OC)c(NC(=O)c2nnn(Cc3ccc(Br)cc3F)c2N)c1
EC50 [3]: 45 nM

c1cc2c(cc1[C@H]1OC[C@H]3[C@@H]1CO[C@@H]3c1ccc3c(c1)OCO3)OCO2 [SESAMIN]
IC50 [4]: 9780 nM

C[C@H]1C(=O)N(C[C@@H](Cc2ccccc2)N(Cc2ccccc2)Cc2ccccc2)[C@@]1(Cc1ccccc1)C(=O)OCc1ccccc1
IC50 [5]: 20 nM | IC50 [6]: 50 nM | IC50 [7]: 20 nM

C[C@@H]1C(=O)N(C[C@@H](Cc2ccccc2)N(Cc2ccccc2)Cc2ccccc2)[C@]1(Cc1ccccc1)C(=O)OCc1ccccc1
IC50 [5]: 300 nM | IC50 [7]: 300 nM

C[C@H]1C(=O)N(C[C@H](Cc2ccccc2)N(Cc2ccccc2)Cc2ccccc2)[C@@]1(Cc1ccccc1)C(=O)OCc1ccccc1
IC50 [7]: 700 nM

C[C@@H](N)[C@@H](O)CCCCCCCCCCCCCCCCCCCCCCCC[C@H](O)[C@@H](C)N
EC50 [8]: 2600 nM

C[C@@H]1C(=O)N(C[C@H](Cc2ccccc2)N(Cc2ccccc2)Cc2ccccc2)[C@]1(Cc1ccccc1)C(=O)OCc1ccccc1
IC50 [7]: 3100 nM

O=C1NC(c2cccc([N+](=O)[O-])c2)=CCN1c1ccccc1O [ICILLIN]
EC50 [9]: 5 nM

C[C@H]1[C@H](F)C[C@@H](C(=O)NCc2cc(-c3cnc(C(F)(F)F)nc3)ncc2C(F)(F)F)N1S(=O)(=O)c1ccc(F)cc1
IC50 [10]: 1.7 nM

C[n+]1cc2c3c(ccc2c2ccc4cc5c(cc4c21)OCO5)OCO3
EC50 [11]: 40 nM

CCN(c1cccc(C)c1)S(=O)(=O)c1nnc(NC(=O)c2ccccc2)s1
IC50 [12]: 130 nM
